Data: patent US20240294551A1 (AMGEN INC., priority 2022, published 2024)
Where two headings read alike, the source gives them in different places.

Tests used:
[1] = target: His-tagged KRAS G12D protein (Homo sapiens (Human), UniProt P01116, G12D); test: KRAS G12D TR-FRET Assay; format: binding
How it was run: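 His-tagged KRAS G12D (diluted to 20 nM in pH 7.4 HEPES buffer with 10 mM MgCl2 and 10 μM GDP) was preincubated with titrated compound for 30 min at room temperature. Biotinylated KRPep-2d peptide (diluted to 20 nM) was then added for 1 h, and displacement was monitored by TR-FRET.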

[2] = target: GDP-bound KRAS protein (aa 1-169), containing both G12D and C118A amino acid substitutions (Homo sapiens (Human), UniProt P01116, C118A/G12D); test: KRAS G12D Coupled Nucleotide Exchange Assay; format: biochemical
GDP-bound KRAS protein (aa 1-169), containing both G12D and C118A amino acid substitutions, sequence (P01116 other isoform, or with tags, fused parts or gaps G12D/C118A): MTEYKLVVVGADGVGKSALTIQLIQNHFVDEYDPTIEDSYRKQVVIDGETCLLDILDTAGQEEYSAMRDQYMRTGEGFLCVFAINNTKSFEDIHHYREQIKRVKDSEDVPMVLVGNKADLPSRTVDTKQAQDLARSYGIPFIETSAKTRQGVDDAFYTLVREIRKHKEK

[3] = tested on: Phosphorylation of ERK1/2 in AsPC-1 cells; test: Phospho-ERK1/2 MSD Assay; format: cell-based, human; conditions: Homo sapiens, ASPC1, 2 h
How it was run: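 Read-out: MSD electrochemiluminescent detection of phosphorylated ERK1/2 in whole-cell lysates, fitted to a 4-parameter logistic curve for IC50. Prior to lysis, AsPC-1 cells (25,000 per well) received a 2 h compound dose-response at 37 °C.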

[4] = tested on: AsPC-1 cells; test: AsPC-1 CTG Assay (CellTiter-Glo cell viability); format: cell-based, human; conditions: Homo sapiens, ASPC1, 72 h, first value of the cell, read-out: G12D/C/V Cell Proliferation CTG (72 h) AsPC-1
How it was run: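 Human pancreatic AsPC-1 or colon SW620 cells in RPMI 1640 with 10% FBS, seeded overnight, then exposed to serially diluted compound for 72 h at 37 °C. CellTiter-Glo luminescence normalized to DMSO control; IC50 from a 4-parameter logistic model.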

[5] = tested on: MIA PaCa-2 cells; test: MIA PaCa-2 CTG Assay (CellTiter-Glo cell viability); format: cell-based, human; conditions: Homo sapiens, second value of the cell
Description: MIA PaCa-2 CTG Assay Protocol
MIA PaCa-2 (human pancreatic carcinoma; ATCC CRL-1420) cells were cultured in RPMI 1640 medium containing 10% fetal bovine serum and 1× penicillin/streptomycin/L-glutamine. Cells were seeded in 384-well plates at a density of 1.67E+04 cells/mL and incubated at 37° C., 5% CO2, overnight. Serially-diluted compound or DMSO was added to the cells, and plates were incubated at 37° C., 5% CO2 for 72 h. Cell viability was measured using a CellTiter-Glo® Luminescent Cell Viability Assay kit (Promega) according to the manufacturer's protocol. The luminescence signal of treated samples was normalized to DMSO control, and data were analyzed using a 4-parameter logistic model to calculate IC50 values.

[6] = read-out: KRAS G12D Binding IC50
[7] = read-out: KRAS G12D Coupled Exchange IC50
[8] = read-out: 2 h p-ERK (AsPC-1 cells), IC50
[9] = Mia PaCa-2, 72 h, read-out: G12D/C/V Cell Proliferation CTG (72 h) Mia PaCa-2
[10] = TR-FRET, read-out: KRAS G12D Binding
[11] = 2 hours compound pre-incubation, read-out: KRAS G12D Coupled Exchange
[12] = read-out: 2 h p-ERK (AsPC-1 cells)
[13] = MIA PaCa-2 cells (G12C), 72 h, read-out: G12D/C/V Cell Proliferation CTG (72 h) MIA PaCa-2

His-tagged KRAS G12D protein, sequence (P01116 other isoform, or with tags, fused parts or gaps G12D): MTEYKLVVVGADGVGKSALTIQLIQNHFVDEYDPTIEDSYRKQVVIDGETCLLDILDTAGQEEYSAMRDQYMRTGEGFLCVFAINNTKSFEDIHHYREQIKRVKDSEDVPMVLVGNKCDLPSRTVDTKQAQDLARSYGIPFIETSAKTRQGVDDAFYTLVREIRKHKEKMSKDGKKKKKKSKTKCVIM

IC50 [1, 6] | IC50 [2, 7] | IC50 [3, 8] | IC50 ([4]; AsPC-1, 72 h) | IC50 [5, 9] | IC50 [1, 10] | IC50 [2, 11] | IC50 [3, 12] | IC50 ([4]; AsPC-1 cells (G12D), 72 h) | IC50 [5, 13] | SMILES
10 nM | 3 nM | 118 nM | 457 nM | 344 nM |  |  |  |  |  | O=C1OCCCc2c(Cl)cc3[nH]ncc3c2-c2ncc3c(nc(OC[C@@]45CCCN4C[C@@H](F)C5)nc3c2F)N2CCOC[C@H](C2)O1 [Example 360, (26S)-18-chloro-32-fluoro-4-(((25,7aS)-2-fluorotetrahydro-1H-pyrrolo[1,2-a]pyrrol-7a(5H)-yl)methoxy)-23,25,28-trioxa-1,3,5,9,14,15-hexaazahexacyclo[24.4.1.1~6,10~.0~2,7~.0~11,19~.0~12,16~]dotriaconta-2,4,6(32),7,9,11,13,16,18-nonaen-24-one]
7 nM | 2 nM | 41.5 nM | 268 nM | 35 nM |  |  |  |  |  | CN1CCC[C@H]1COc1nc2c3cnc(c(F)c3n1)-c1c(c(Cl)cc3[nH]ncc13)CCCOC(=O)O[C@]1(CF)COCCN2C1 [Example 338, (26S)-18-chloro-32-fluoro-26-(fluoromethyl)-4-(((2S)-1-methyl-2-pyrrolidinyl)methoxy)-23,25,28-trioxa-1,3,5,9,14,15-hexaazahexacyclo[24.4.1.1~6,10~.0~2,7~.0~11,19~.0~12,16~]dotriaconta-2,4,6,8,10(32),11,13,16,18-nonaen-24-one]
3 nM | 1 nM | 1.9 nM | 22 nM | 3 nM |  |  |  |  |  | [2H]C([2H])([2H])[C@@]12COCCN(C1)c1nc(OC[C@@]34CCCN3C[C@H](F)C4)nc3c(F)c(ncc13)-c1c(c(Cl)cc3[nH]ncc13)CCCOC(=O)O2 [Example 353, (26S)-18-chloro-32-fluoro-4-(((2R,7aS)-2-fluorotetrahydro-1H-pyrrolo[1,2-a]pyrrol-7a(5H)-yl)methoxy)-26-(~2~H_3_)methyl-23,25,28-trioxa-1,3,5,9,14,15-hexaazahexacyclo[24.4.1.1~6,10~.0~2,7~.0~11,19~.0~12,16~]dotriaconta-2,4,6(32),7,9,11,13,16,18-nonaen-24-one]
 |  |  |  |  | 4 nM | 2 nM | 25.9 nM | 44 nM | 105 nM | Fc1c2ncc3c(nc(OC[C@@]45CCCN4C[C@H](F)C5)nc13)N1CCCC[C@@](F)(COCCCCc3c(Cl)cc4[nH]ncc4c3-2)C1 [Example 399, (26S)-18-chloro-26,32-difluoro-4-(((2R,7aS)-2-fluorotetrahydro-1H-pyrrolo[1,2-a]pyrrol-7a(5H)-yl)methoxy)-24-oxa-1,3,5,9,14,15-hexaazahexacyclo[24.4.1.1~6,10~.0~2,7~.0~11,19~.0~12,16~]dotriaconta-2,4,6,8,10(32),11,13,16,18-nonaene]
 |  |  |  |  | 7 nM | 3 nM | 7 nM | 21 nM | 5 nM | Cc1cc2[nH]ncc2c2c1CCc1cnc(o1)[C@@H](O)[C@@H]1CCCN(C1)c1nc(OC[C@@]34CCCN3C[C@H](F)C4)nc3c(F)c-2ncc13 [Example 373]
4 nM | 2 nM | 36 nM | 350 nM | 200 nM |  |  |  |  |  | C[C@@]12CCCN(C1)c1nc(OC[C@@]34CCCN3C[C@H](F)C4)nc3c(F)c(ncc13)-c1cc(O)cc3ccc(F)c(c13)CCCCC(=O)N2 [Example 47, (15R)-23,32-Difluoro-8-(((2R,7aS)-2-fluorotetrahydro-1H-pyrrolo[1,2-a]pyrrol-7a(5H)-yl)methoxy)-28-hydroxy-15-methyl-3,7,9,11,16-pentaazahexacyclo[20.7.1.1˜2,6˜.1˜11,15˜.0˜5,10˜.0˜26,30˜]dotriaconta-1(30),2(32),3,5,7,9,22,24,26,28-decaen-17-one]
